Drawing on US6855730B2, “3-methylidenyl-2-indolinone modulators of protein kinase” (Sugen, Inc., priority 1998, dated 2005), this text covers IC50 for 10 molecules.

One assay addresses T1, PDGFR-β (Homo sapiens, UniProt P09619).
T1 construct: host or cells: NIH 3T3
The assay can be described thus: Biochemical PDGFR assay (ELISA, PDGFR-β expressing NIH 3T3 cell lysate). Conditions: read-out: bio PDGF IC50. The procedure, abridged: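 PDGFR-β from NIH 3T3 cell lysate captured on anti-PDGFR (28D4C10)-coated plates; compound preincubated 30 min, then 20 μM ATP kinase reaction 30 min at room temperature, stopped with EDTA. Phosphotyrosine detected by anti-phosphotyrosine antibody, peroxidase conjugate and ABTS/H2O2, read at 410 nm.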

The target of the next assay is T2, flkGST (Homo sapiens, UniProt P35968).
T2 construct: GST
T2 sequence (P35968 786-1356 limits assumed): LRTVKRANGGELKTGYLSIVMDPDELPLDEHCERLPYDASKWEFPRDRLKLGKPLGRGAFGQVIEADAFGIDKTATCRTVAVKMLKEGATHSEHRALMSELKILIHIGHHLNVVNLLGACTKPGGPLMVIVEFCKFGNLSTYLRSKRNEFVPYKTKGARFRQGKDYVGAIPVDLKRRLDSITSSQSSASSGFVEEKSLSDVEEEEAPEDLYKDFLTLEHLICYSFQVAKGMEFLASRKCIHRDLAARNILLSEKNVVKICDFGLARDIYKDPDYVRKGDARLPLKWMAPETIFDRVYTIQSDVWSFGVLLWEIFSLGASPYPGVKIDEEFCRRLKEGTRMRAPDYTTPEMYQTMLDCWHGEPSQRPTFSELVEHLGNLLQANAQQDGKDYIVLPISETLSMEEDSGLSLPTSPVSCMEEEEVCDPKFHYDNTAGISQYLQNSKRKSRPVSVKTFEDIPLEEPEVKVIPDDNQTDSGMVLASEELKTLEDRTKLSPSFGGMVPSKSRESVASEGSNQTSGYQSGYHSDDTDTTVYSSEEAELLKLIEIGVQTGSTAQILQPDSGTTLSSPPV
The assay can be described thus: bio flkGST assay. Type of assay: biochemical.

A further assay addresses pyk2 (Homo sapiens, UniProt Q14289). The assay can be described thus: bio pyk2 assay. The format is biochemical.
Assay [1] deals with Myc-GyrB-FGFR fusion protein (Homo sapiens, UniProt P11362). The assay can be described thus: Biochemical FGFR assay (ELISA). Conditions: read-out: bio fgfR1 IC50.
Sequence of Myc-GyrB-FGFR fusion protein (P11362 478-767 limits assumed): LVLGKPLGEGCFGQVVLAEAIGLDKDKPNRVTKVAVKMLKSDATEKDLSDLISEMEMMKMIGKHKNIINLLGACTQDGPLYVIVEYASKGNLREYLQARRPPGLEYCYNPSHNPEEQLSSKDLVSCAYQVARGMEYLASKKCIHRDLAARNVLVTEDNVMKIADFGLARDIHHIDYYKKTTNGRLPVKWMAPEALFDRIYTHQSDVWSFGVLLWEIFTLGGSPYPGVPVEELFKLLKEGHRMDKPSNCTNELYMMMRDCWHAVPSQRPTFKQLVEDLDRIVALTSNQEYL
In a further assay the target is EGFR (Homo sapiens, UniProt P00533). Description: Biochemical EGFR assay (ELISA, A431 cell lysate). Details: A431 cell lysate (Screening Lab, SUGEN, Inc.); host or cells: A431. Conditions: read-out: bio EGFr IC50. The procedure, abridged: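 EGFR captured from A431 cell lysate onto anti-EGFR-coated plates, then incubated with test compound for 30 min at room temperature. Tyrosine phosphorylation with ATP/MnCl2 was stopped with EDTA after 5 min and detected by anti-phosphotyrosine ELISA with peroxidase/ABTS read-out.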
Sequence of EGFR (P00533 25-1210): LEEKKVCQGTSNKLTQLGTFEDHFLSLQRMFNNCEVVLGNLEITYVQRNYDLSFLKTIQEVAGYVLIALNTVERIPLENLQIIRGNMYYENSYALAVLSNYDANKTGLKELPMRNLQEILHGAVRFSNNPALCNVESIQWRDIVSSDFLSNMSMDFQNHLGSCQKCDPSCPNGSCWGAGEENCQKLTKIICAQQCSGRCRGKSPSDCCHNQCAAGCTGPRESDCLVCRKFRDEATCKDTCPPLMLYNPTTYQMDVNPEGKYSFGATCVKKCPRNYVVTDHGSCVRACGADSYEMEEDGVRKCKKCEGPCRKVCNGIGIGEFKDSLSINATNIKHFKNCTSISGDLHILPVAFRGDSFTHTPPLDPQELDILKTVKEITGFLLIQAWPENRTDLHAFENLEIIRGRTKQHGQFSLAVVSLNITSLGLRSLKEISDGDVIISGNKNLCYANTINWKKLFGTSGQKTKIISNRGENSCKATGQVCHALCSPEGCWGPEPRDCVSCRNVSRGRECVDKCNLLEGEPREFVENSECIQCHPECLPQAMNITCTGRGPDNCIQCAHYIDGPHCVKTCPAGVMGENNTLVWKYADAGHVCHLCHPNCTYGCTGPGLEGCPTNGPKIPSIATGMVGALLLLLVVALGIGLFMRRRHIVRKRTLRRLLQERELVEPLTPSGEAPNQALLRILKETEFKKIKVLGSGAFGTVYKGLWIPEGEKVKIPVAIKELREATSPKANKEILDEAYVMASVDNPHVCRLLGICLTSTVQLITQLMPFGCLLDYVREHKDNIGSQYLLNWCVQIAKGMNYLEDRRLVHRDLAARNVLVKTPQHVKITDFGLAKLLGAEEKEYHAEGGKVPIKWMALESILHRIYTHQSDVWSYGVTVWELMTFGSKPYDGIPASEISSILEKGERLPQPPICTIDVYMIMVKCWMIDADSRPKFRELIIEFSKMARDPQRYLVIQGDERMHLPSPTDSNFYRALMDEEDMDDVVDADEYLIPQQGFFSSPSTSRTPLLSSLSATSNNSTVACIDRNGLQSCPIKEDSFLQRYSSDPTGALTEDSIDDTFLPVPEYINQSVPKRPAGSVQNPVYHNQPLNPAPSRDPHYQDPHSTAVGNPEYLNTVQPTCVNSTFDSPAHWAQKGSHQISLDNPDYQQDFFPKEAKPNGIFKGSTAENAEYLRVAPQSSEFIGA

T1 sequence (P09619 33-1106): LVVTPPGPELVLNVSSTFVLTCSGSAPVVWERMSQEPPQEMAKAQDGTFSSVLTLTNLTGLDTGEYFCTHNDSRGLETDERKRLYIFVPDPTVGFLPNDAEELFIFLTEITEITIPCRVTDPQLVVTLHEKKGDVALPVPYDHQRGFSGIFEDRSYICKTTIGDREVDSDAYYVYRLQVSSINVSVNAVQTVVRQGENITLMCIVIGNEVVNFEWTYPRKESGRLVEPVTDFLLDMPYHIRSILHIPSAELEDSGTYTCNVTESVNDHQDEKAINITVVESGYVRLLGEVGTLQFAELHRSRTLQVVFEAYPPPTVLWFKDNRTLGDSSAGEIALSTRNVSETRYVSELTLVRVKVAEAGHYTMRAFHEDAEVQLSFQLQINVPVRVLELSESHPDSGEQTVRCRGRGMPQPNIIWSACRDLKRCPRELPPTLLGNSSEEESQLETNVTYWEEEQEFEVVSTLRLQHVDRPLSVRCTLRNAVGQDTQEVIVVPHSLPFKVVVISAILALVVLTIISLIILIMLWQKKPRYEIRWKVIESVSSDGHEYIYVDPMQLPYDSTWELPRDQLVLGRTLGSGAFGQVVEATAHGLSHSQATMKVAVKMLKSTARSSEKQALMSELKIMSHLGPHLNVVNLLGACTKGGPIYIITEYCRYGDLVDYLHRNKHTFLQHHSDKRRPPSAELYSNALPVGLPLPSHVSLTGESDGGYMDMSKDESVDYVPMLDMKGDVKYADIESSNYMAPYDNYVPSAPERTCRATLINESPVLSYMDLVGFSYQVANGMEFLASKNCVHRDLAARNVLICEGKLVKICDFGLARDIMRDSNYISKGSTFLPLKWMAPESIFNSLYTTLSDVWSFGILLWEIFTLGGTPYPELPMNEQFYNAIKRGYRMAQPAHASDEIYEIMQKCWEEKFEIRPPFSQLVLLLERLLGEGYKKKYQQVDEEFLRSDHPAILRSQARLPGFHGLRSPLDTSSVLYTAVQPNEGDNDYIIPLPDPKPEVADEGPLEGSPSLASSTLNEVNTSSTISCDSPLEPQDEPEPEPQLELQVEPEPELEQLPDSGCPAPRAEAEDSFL
Sequence of pyk2 (Q14289 whole entry, species assumed, the tested form may be a part): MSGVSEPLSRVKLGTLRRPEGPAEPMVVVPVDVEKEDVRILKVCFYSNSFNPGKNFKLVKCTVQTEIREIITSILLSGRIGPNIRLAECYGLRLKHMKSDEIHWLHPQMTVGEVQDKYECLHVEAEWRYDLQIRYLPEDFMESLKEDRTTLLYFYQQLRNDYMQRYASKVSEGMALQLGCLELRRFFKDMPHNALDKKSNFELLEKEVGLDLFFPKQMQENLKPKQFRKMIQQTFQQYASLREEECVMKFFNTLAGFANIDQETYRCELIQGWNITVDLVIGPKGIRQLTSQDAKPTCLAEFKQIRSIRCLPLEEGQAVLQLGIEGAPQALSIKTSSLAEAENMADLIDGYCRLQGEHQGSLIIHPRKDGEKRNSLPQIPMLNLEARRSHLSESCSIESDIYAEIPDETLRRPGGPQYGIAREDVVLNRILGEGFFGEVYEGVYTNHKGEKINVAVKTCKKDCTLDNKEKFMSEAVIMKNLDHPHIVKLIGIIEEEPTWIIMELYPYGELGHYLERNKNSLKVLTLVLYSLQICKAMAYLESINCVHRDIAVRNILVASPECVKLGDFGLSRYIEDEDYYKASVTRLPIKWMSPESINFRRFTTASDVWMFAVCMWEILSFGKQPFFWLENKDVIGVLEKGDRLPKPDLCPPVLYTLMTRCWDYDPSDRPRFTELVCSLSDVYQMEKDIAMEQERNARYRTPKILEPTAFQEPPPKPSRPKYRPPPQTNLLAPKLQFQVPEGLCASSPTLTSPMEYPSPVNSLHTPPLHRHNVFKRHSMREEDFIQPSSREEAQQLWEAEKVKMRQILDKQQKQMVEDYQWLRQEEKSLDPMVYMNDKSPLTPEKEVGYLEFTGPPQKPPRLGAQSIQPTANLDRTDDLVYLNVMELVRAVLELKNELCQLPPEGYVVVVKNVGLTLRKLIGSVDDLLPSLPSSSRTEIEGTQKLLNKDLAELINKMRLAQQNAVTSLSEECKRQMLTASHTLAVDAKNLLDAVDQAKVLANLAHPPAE

Usually IC50 stands for the midpoint of a concentration-inhibition curve. With `CNS(=O)(=O)c1ccc2c(c1)/C(=C/c1ccc3[nH]ccc3c1)C(=O)N2` [Example 176, 3-(1H-Indol-5-ylmethylene)-2-oxo-2,3-dihydro-1H-indole-5-sulfonic acid methylamide], the IC50 on PDGFR-β was 79.2 µM; against flkGST, 2.08 µM; on pyk2 it was 66.1 µM; in assay [1] it was 0.75 µM.

On to `CNS(=O)(=O)c1ccc2c(c1)/C(=C/c1c(C)[nH]c3ccccc13)C(=O)N2` [Compound 181, 3-(2-Methyl-1H-indol-3-ylmethylene)-2-oxo-2,3-dihydro-1H-indole 5-sulfonic acid methylamide], for which the half-inhibitory concentration (IC50) at PDGFR-β was over 100 µM; against flkGST, 12.5 µM; against pyk2, over 100 µM; in assay [1], 5.74 µM.

Regarding `NS(=O)(=O)c1ccc2c(c1)/C(=C/c1ccc3[nH]ccc3c1)C(=O)N2` [Example 185, 3-(1H-Indol-5-ylmethylene)-2-oxo-2,3-dihydro-1H-indole-5-sulfonic acid amide], the IC50 at PDGFR-β is over 100 µM; against flkGST, 3.39 µM; on pyk2, over 100 µM; in assay [1] it was 9.43 µM.

With `Cc1[nH]c2ccccc2c1/C=C1\C(=O)Nc2ccc(S(=O)(=O)N(C)C)cc21` [Example 184, 3-(2-Methyl-1H-indol-3-ylmethylene)-2-oxo-2,3-dihydro-1H-indole-5-sulfonic acid dimethylamide], the IC50 on PDGFR-β was over 100 µM; on flkGST it was over 20 µM; against pyk2, over 100 µM; in assay [1], 8.6 µM.

In the case of `CCOC(=O)c1c(C)[nH]c(/C=C2\C(=O)Nc3ccc(S(=O)(=O)NC)cc32)c1CCCN(C)C` [Example 137], the concentration for half-maximal inhibition (IC50) is 6.17 µM at PDGFR-β, 7.54 µM at flkGST, over 10 µM at pyk2 and over 100 µM on EGFR.

With `CCOC(=O)c1c(C)[nH]c(/C=C2\C(=O)Nc3ccc(S(=O)(=O)NC)cc32)c1CCCN1CCOCC1` [Example 118, 2-Methyl-5-(5-methylsulfamoyl-2-oxo-1,2-dihydroindol-3-ylidenemethyl)-4-(3-morpholin-4-ylpropyl)-1H-pyrrole-3-carboxylic acid ethyl ester], the IC50 at PDGFR-β is over 100 µM; at flkGST, 9.29 µM; against pyk2 it was 4.24 µM.

Consider `CCOC(=O)c1c(C)[nH]c(/C=C2\C(=O)Nc3ccc(S(N)(=O)=O)cc32)c1CCCN1CCN(C)CC1` [Example 124, 2-Methyl-4-[3-(4-methylpiperazin-1-yl)-propyl]-5-(2-oxo-5-sulfamoyl-1,2-dihydroindol-3ylidenemethyl)-1H-pyrrole-3-carboxylic acid ethyl ester], for which the IC50 at PDGFR-β was determined as 33.9 µM; against flkGST it was 13.9 µM; against pyk2, 4.21 µM.

Regarding `CCOC(=O)c1c(C)[nH]c(/C=C2\C(=O)Nc3cccc(CCO)c32)c1CCCN1CCN(C)CC1` [Example 136, 5-[4-(2-Hydroxyethyl)-2-oxo-1,2-dihydroindol-3-ylidenemethyl]-2-methyl-4-[3-(4methylpiperazin-1-yl)-propyl]-1H-pyrrole-3-carboxylic acid ethyl ester], the IC50 on PDGFR-β stood at 27 µM; at flkGST, 0.56 µM; against pyk2, 2.77 µM.

For `CNS(=O)(=O)c1ccc2c(c1)/C(=C/c1[nH]c(C)c(C(=O)O)c1CCCN(C)C)C(=O)N2` [Example 138, 4-(3-Dimethylaminopropyl)-2-methyl-5-(5-methylsulfamoyl-2-oxo-1,2-dihydroindol-3-ylidenemethyl)-1H-pyrrole-3-carboxylic acid], the IC50 at PDGFR-β is 26.2 µM; against flkGST it was 17.6 µM; on pyk2, 2.18 µM; on EGFR, over 100 µM.

Turning to `CCOC(=O)c1c(C)[nH]c(/C=C2\C(=O)Nc3ccc(S(N)(=O)=O)cc32)c1CCCN1CCOCC1` [Example 123, 2-Methyl-4-(3-morpholin-4-ylpropyl)-5-(2-oxo-5-sulfamoyl-1,2-dihydroindol-3-ylidenemethyl)-1H-pyrrole-3-carboxylic acid ethyl ester], the half-maximal inhibitory concentration (IC50) at PDGFR-β is 15.2 µM; at flkGST, 16.9 µM; at pyk2, 4.71 µM.
